# Reference: paper PMC5955599, “The HTLV-1 gp21 fusion peptide inhibits antigen specific T-cell activation in-vitro and in mice” (PLoS Pathogens, 2018)
# “Also recorded” adds a separate entry of the source.
# Columns and labels:
# [1] = tested on: MOG35-55–antigen specific T-cells; test: In-vitro T-cell proliferative response (H3-thymidine incorporation); type: cell-based, mouse (C57Bl/6J); conditions: peptide at 10μM
# [2] = tested on: MOG35-55–antigen specific T-cells; test: Cytokine secretion from activated antigen-specific T-cells (ELISA); type: cell-based, mouse (C57Bl/6J); conditions: peptide at 10μM, APC-activated T-cells, media 24 hours following activation, n = 12
# Method: (§1) Fig 2 Modulation of Th1/Th2 gene expression and cytokine secretion from activated T-cells by the HTLV FP. MOG35-55–antigen specific T-cells were activated by irradiated MOG35-55 presenting APCs, in the presence of the HTLV FP at 10μM. (A) Total RNA was isolated 24 hours following activation and mRNA expression levels were determined by qRT-PCR. The values of each gene were normalized to Rpl13a as a housekeeping control. The HTLV FP reduces mRNA expression of Th1 specific genes (IFNG, LTA, and STAT4) and elevates mRNA expression of Th2 specific genes (IL4 and IL10). The data is presented as arbitrary units. n≥3. (B) Media was collected 24 hours following activation and secretion of cytokines was measured by ELISA assay. IFN-γ secretion is inhibited, IL4 secretion is elevated and TNFα is not affected by the HTLV FP. n = 12. One-way ANOVA was used for statistical analysis. *P<0.05; **P<0.01;***P<0.001.
# Antigen-specific T-cells were plated onto round 96-well plates in medium containing RPMI-1640 supplemented with 2.5% fetal calf serum (FCS), 100 U/ml penicillin, 100 μg/ml streptomycin, 50μM β-mercaptoethanol, and 2mM L-glutamine. […] In addition, the relevant peptide was added. Each treatment was made with quadruplicate. Analysis of IFN-γ, IL-4 and TNFα secretion was performed by ELISA 24 hours after cell activation according to standard protocols from R&D systems.
# [3] = tested on: MOG35-55–antigen specific T-cells; test: mRNA expression in activated T-cells (qRT-PCR); type: cell-based, mouse (C57Bl/6J); conditions: 10μM; APC activation; RNA 24 hours following activation; normalized to Rpl13a; n≥3
# Method: as §1
# (A-B) MOG35-55–antigen specific T-cells were activated by irradiated MOG35-55 presenting APCs, in the presence of the HTLV FP at 10μM. Total RNA was isolated 24 hours following activation and mRNA expression levels were determined by qRT-PCR. The values of each gene were normalized to Rpl13a as a housekeeping control. The HTLV FP reduces TBX21 (T-bet) mRNA expression and elevates GATA3 mRNA expression. The data is presented as arbitrary units. n≥3. (C-H) MOG35-55–antigen specific T-cells were activated by irradiated MOG35-55 presenting APCs, in the presence of either HTLV or HIV FP at 10μM. Samples were fixed in 4% PFA and stained with anti T-bet-APC and anti Gata3-FITC antibodies (C-D) 24, (E-F) 48 and (G-H) 72 hours following activation. Each time point is represented as cell count vs. APC or FITC fluorescence histogram. Analysis was performed using LSR-II flow cytometer (BD) and FlowJo cell analysis software (FlowJo, LLC). The HTLV FP reduces T-bet expression and elevates Gata3 expression. n = 3. One-way ANOVA was used for statistical analysis. ns, not significant; *P<0.05;** P<0.01.
# Antigen-specific T-cells were plated onto round 12-well plates (10^6 cells/ well) and activated with 5x10^5 irradiated (25 gray) APC and 5μg/ml of MOG p35-55 in the presence or absence of relevant peptides. Total RNA from cells was isolated 24 hours following activation using the NucleoSpin RNA II kit (Macherey-Nagel, Duren, Germany). 2μg aliquot of the total RNA was reverse transcribed into cDNA using Bio-RT (Bio-Lab, Jerusalem, Israel), dNTPs and random hexamer primers. qRT-PCR was performed on Step One Plus, ABI instrument (Applied Biosystems, Grand Island, NY, USA) using SYBR Green PCR Master Mix (Quanta BioSciences, Gaithersburg, MD, USA). The values for the specific genes were normalized to Rpl13a (mouse) as housekeeping controls and the data are described in arbitrary units. PCR reactions were performed in duplicate. The specific primers used for qRT-PCR are available on request.
# [4] = Circular dichroism spectroscopy with CDNN secondary structure analysis; type: physicochemical; conditions: 25μM peptide in 5mM HEPES buffer with 1% LPC
# Method: Fig 6 Detection of the immune modulatory region within the HTLV FP. (A) Sequences of shorter peptides derived from the full length HTLV FP. (B) MOG35-55–antigen specific T-cells were activated by APCs in the presence of HTLV FP derived peptides at 10μM and proliferative responses were assessed as described above. […] The data is presented as mean inhibition of proliferation. n = 12. (C) MOG35-55–antigen specific T cells were activated by either (i) irradiated MOG35-55 presenting APCs (black), (ii) antibodies against CD3 and CD28 (white), or (iii) PMA and Ionomycin (gray) in the presence of HTLV FP5-13 and HIV FP5-13 at 10μM. Proliferative responses were assessed as described above. The HTLV FP inhibits T-cell proliferation induced either through the TCR or downstream from the TCR with equal potencies. The data is presented as mean inhibition of proliferation. n = 12. […] CD spectra were measured at 25μM in 5mM HEPES buffer containing 1% lyso-phosphatidylcholine (LPC). […] (E) MOG35-55–antigen specific T-cells were activated by APCs in the presence of HTLV FP5-13 D/L enantiomers at 10μM and proliferative responses were assessed as described above. Both HTLV FP5-13 enantiomers inhibit T-cells proliferation with equal potencies. The data is presented as mean inhibition of proliferation. n = 12. One-way ANOVA was used for statistical analysis. *P<0.05;**P<0.01;***P<0.001.
# [5] = CD 190–260 nm, CDNN, relative amount of structure out of 100%
sequence,measurement,setting,value
"AVPVAVWLVSALAMGAGVAGGITGSMSLASGKS [HTLV FP, gp21 fusion peptide of HTLV-1, MT-2 isolate]","inhibition of T-cell proliferation, activation by PMA and Ionomycin","[1]; 50ng/mL PMA with 1μM ionomycin, n = 12",inhibited T-cell proliferation induced at all three levels of activation with equal potency
same,"inhibition of T-cell proliferation, activation by antibodies against CD3 and CD28","[1]; CD3 and CD28 antibodies 2μg/ml, n = 12",inhibited T-cell proliferation induced at all three levels of activation with equal potency
same,"inhibition of T-cell proliferation, activation by MOG35-55 presenting APCs","[1]; irradiated MOG35-55 presenting APCs, mean inhibition of proliferation, n = 12, 10 µM",inhibit T-cell proliferation with equal potency to that of HIV’s FP and significantly stronger than the BLV FP; also recorded: inhibited T-cell proliferation induced at all three levels of activation with equal potency; also recorded: inhibited both T-cell proliferation and IFN-γ secretion with higher potency than the HTLV Scr; also recorded: inhibit T-cell proliferation with higher potency than HTLV FP9-22 and HTLV FP14-22
same,IFN-γ secretion,[2],inhibited both T-cell proliferation and IFN-γ secretion with higher potency than the HTLV Scr
same,IL4 secretion,[2],elevated IL4 secretion
same,TNF-α secretion,[2],had no effect on TNF-α secretion
same,GATA3 mRNA expression,[3],elevated Gata3 expression
same,IFNG mRNA level,[3],reduced the mRNA levels
same,IL4 mRNA level,[3],elevated the mRNA levels
same,IL10 mRNA level,[3],elevated the mRNA levels
same,LTA mRNA level,[3],reduced the mRNA levels
same,STAT4 mRNA level,[3],reduced the mRNA levels
same,TBX21 (T-bet) mRNA expression,[3],reduced TBX21 (T-bet) expression
same,Antiparallel β-Sheet,[4]; [5],2.1%
same,Parallel β-Sheet,[4]; [5],3.3%
same,Random-coil,[4]; [5],13%
same,α-Helix,[4]; [5],68.6%
same,β-turn,[4]; [5],13%
same,secondary structure in a membrane mimetic environment,[4]; CD,exhibited an α-helical structure
